Each structure is given as a SMILES string. Read-outs that look alike come from different tables or passages of the source.

Data set [1] has as its system kidney. To be noted: Watanabe et al, Hiroshima J. Med. Sci.; cited from earlier work.
For data set [2] the following is noted: 109th meeting of Japan Pharmacological Society, 1989; cited from earlier work.
For data set [3], the system named is liver diseases caused by carbon tetrachloride, endotoxin shock and cataracts caused by hydrocortisone. To be noted: Watanabe 1988; Matsumoto 1989; Nishigoori 1989; cited from earlier work.
Data set [4] relates to male mice SPF-ICR. Kind of data set: Acute Toxicity Test (4), oral. To be noted: oral 1.0, 1.5 and 2.0 g/kg, 8 mice per group, 14 days. It is filed as in vivo. The method, then:
To male mice SPF-ICR five weeks old (supplied by Japan Charles River Co.) was orally administered OPQ at dosages of 1.0, 1.5 and 2.0 g per kg of body weight of mouse, respectively and they were bred for 14 days at 25° C. One group consisted of 8 mice. No mice died.

Data set [5] has as its system male mice SPF-ICR. Kind of data set: Acute toxicity test (1), intraperitoneal. To be noted: mouse, in vivo. The method, then:
To male mice SPF-ICR five weeks old (supplied by Japan Charles River Co.) were intraperitoneally administered PQQ·2Na, PQQ trimethyl ester, PQQ triallyl ester, OPQ, 1-methylpropyl OPQ, 2-methylthioethyl OPQ and benzyl OPQ at dosages of 40, 80, 160 and 200 mg per kg of body weight of mouce, respectively and they were bred for 14 days at 25° C. One group consisted of 8 mice. For administration, PQQ·2Na and OPQ and esters thereof were dissolved in physiological saline and PQQ trimethyl ester and PQQ triallyl ester were suspended in 1% Tween 80-containing physiological saline, respectively.

In data set [6] the test system is mice. To be noted: mouse, in vivo, ip. As for the experimental part: One group consisted of 8 mice. For administration, PQQ·2Na and OPQ and esters thereof were dissolved in physiological saline and PQQ trimethyl ester and PQQ triallyl ester were suspended in 1% Tween 80-containing physiological saline, respectively.
PQQ·2Na, PQQ trimethyl ester, PQQ triallyl ester and OPQ and esters thereof were intraperitoneally administered to mice and they were bred in the same manner as in the above acute toxicity test. Urine of the mice was taken every day and glucose concentration was measured using clinical examination reagent (trademark: […] 2 manufactured by Miles.Sankyo Co.).

The test system of data set [7] is mice. Kind of data set: Kidney Toxicity Determined by Blood Examination (3). The class given is in vivo. To be noted: mouse serum. As for the experimental part: Thereafter, the mice were fasted (with feeding only water) and then after 18 hours, blood was collected and serum was obtained therefrom. Glucose, urea nitrogen and creatinine in the serum were examined by clinical examination reagent (trademark: FUJI DRYCHEMSLIDE manufactured by Fuji Photo Film Co., Ltd.).

The nature of data set [8]: Hydroxy radical scavenging activity (H2O2-(Fe^2+-DTPA), DMPO spin trapping, ESR). It is filed as biochemical. To be noted: Example 4, Table 9; pH 7.3; read-out: .OH scavenging activity IC50. An excerpt:
Activity of PQQ esters to scavenge hydroxy radical (·OH) produced in the system of H2 O2 --(Fe^2+ -DTPA) was examined by spin trapping method [using 5,5-dimethyl-1-pyrroline-N-oxide (hereinafter referred to as "DMPO") as a spin trapping agent] where electron spin resonance (hereinafter referred to as "ESR") was used. DTPA means diethylenetriamine-pentaacetic acid.
H2 O2 +Fe^2 -DTPA complex→·OH+OH^-
The following reagents were successively put in a test tube and stirred after addition of H2 O2 6 to initiate the reaction and the reaction mixture was transferred to a quartz cell used for measurement of ESR.
Hydroxy radical scavenging activity of OPQ and esters thereof was examined in the same manner as in Example 3.

Data set [9] in a line: Superoxide scavenging activity (hypoxanthine-xanthine oxidase, DMPO spin trapping, ESR). To be noted: Example 2, Table 7; pH 7.3; read-out: O2^- scavenging activity IC50. The class given is biochemical. An excerpt: Activity of PQQ esters to scavenge superoxide (O2^-) produced in the system of hypoxanthinexanthine oxidase was examined by spin trapping method [using 5,5-dimethyl-l-pyrroline-N-oxide (hereinafter referred to as "DMPO") as a spin trapping agent] where electron spin resonance (hereinafter referred to as "ESR") was used.
Hypoxanthine+2O2 →2O2^- +uric acid (xanthine oxidase)
The following reagents were successively put in a test tube and stirred after addition of the hypoxanthine 7 to initiate the reaction and the reaction mixture was transferred to a quartz cell used for measurement of ESR.
Superoxide scavenging activity of OPQ and esters thereof was examined in the same manner as in Example 1.

The subject of data set [10] is mice. Kind of data set: Kidney Toxicity Determined by Blood Examination (1). It is filed as in vivo. To be noted: mouse serum. The method, then: After lapse of one day from the administration, the mice were fasted (with feeding only water) and then after 18 hours, blood was collected and serum was obtained therefrom. Glucose, urea nitrogen and creatinine in the serum were examined by clinical examination reagent (trademark: FUJI DRYCHEMSLIDE manufactured by Fuji Photo Film Co., Ltd.).

The test system of data set [11] is Hydrocortisone-Induced Cataract of Hen's Eggs. The experiment in a line: Effect on hydrocortisone-induced cataract of hen's eggs. The class given is in vivo, white leghorn (hen's eggs). To be noted: 1 μmole at 3, 10 and 20 h after hydrocortisone; lens at 48 h. The method, then:
Fertilized eggs of white leghorn were incubated in an incubator at a temperature of 37° C. and 70% in humidity. The day on which the incubation was started was taken to be one day old. […] eggs of 15 day old were prepared and divided into 7 groups, each of which included 5 eggs (A-G). A small hole was bored through the eggshell above air chamber of the eggs of groups B-G and 0.25 μmole (as 0.2 ml solution) of hydrocortisone sodium succinate was administered into the air chamber through the hole and then, the hole was sealed with a cellophane tape. To The eggs of groups C-G was administered 1 μmole of following compounds after 3, 10 and 20 hours from administration of hydrocortisone sodium succinate. That is, 0.2 ml of a solution of PQQ·2Na in distilled water was administered to the eggs of group C, 0.2 ml of a suspension of PQQ trimethyl ester in 1% Tween 80 solution was administered to the eggs of group D, 0.2 ml of a suspension of triallyl ester in 1% Tween 80 solution was administered to the eggs of group E, 0.2 ml of a solution of OPQ in 10 mM NaCO3 solution was administered to the eggs of group F, and 0.2 ml of a solution of methyl OPQ in 10 mM NaCO3 solution was administered to the eggs of group G.
Crystal lens was taken out after 48 hours from administration of hydrocortisone sodium succinate and degree of cataract was judged by the criteria according to the Nishigori et al method (Nishigori et al, "Investigative Ophthalmology & Visual Science", Vol. 25, page 1051, 1984).
5 The whole nucleus was hazed in white.

The test system of data set [12] is male mice SPF-ICR. The experiment in a line: Acute Toxicity Test (3), intraperitoneal. The class given is in vivo. To be noted: for mice died: 8 mice per group, 14 days. An excerpt: One group consisted of 8 mice.

Consider `O=C(O)c1cc(C(=O)O)c2c(n1)C(=O)C(=O)c1cc(C(=O)O)[nH]c1-2` [PQQ, pyrrolo quinoline quinone], for which the “kidney toxicity” value in data set [1] is listed as “has kidney toxicity”. Further, the “active oxygen scavenging action” value in [2] is on record as “strong active oxygen scavenging action”. The “inhibition of diseases” value in data set [3] is “inhibits liver diseases caused by carbon tetrachloride, endotoxin shock and cataracts caused by hydrocortisone”.

For the compound `O=C(O)c1cc(C(=O)O)c2c(n1)c1ncoc1c1cc(C(=O)O)[nH]c12` [OPQ, 2,8,10-tricarboxy-1-H-oxazo[5,4-h]-pyrrolo[2,3-f]quinoline], the mice died entry is “No mice died” in [4]; “no mice died” in [5]; “No mice died” in data set [12] (i.p. 0.1-0.4 g/kg); “two mice died” in data set [12] (i.p. 0.8 g/kg); “three mice died” in data set [12] (i.p. 1.0 g/kg); “six mice died” in [12] (i.p. 1.2 g/kg). For the same compound, the glucose in urine entry in data set [6] (20 mg/kg), in data set [6] (40 mg/kg), in [6] (80 mg/kg), in data set [6] (160 mg/kg), in data set [6] (200 mg/kg) and in [6] (400 mg/kg) was “-” each time. Also, the glucose in urine entry in [6] (800 mg/kg), in data set [6] (1000 mg/kg) and in data set [6] (1200 mg/kg) was “-” throughout. Also, the Creatinine in [7] (i.p. 150 mg/kg) is 0.75 ± 0.05 mg/dL; in [7] (i.p. 300 mg/kg) it was 0.78 ± 0.04 mg/dL; in [7] (i.p. 400 mg/kg), 0.78 ± 0.04 mg/dL; in data set [7] (i.p. 600 mg/kg) it was 0.78 ± 0.11 mg/dL; in [10] (40 mg/kg), 0.70 ± 0.10 mg/dL; in data set [10] (80 mg/kg) it was 0.80 ± 0.10 mg/dL. For the same compound, the Creatinine in data set [10] (160 mg/kg) was found to be 0.73 ± 0.09 mg/dL; in [10] (200 mg/kg), 0.81 ± 0.08 mg/dL. Also, the Glucose in data set [7] (i.p. 150 mg/kg) amounted to 106 ± 21 mg/dL; in data set [7] (i.p. 300 mg/kg), 80 ± 15 mg/dL; in data set [7] (i.p. 400 mg/kg) it was 104 ± 18 mg/dL; in [7] (i.p. 600 mg/kg), 74 ± 11 mg/dL; in data set [10] (40 mg/kg) it was 90 ± 18 mg/dL; in [10] (80 mg/kg), 86 ± 10 mg/dL. Also, the Glucose was determined as 90 ± 23 mg/dL in data set [10] (160 mg/kg) and 85 ± 24 mg/dL in data set [10] (200 mg/kg). The Urea nitrogen in data set [7] (i.p. 150 mg/kg) is 32 ± 3 mg/dL; in data set [7] (i.p. 300 mg/kg) it was 29 ± 2 mg/dL; in data set [7] (i.p. 400 mg/kg), 29 ± 3 mg/dL; in data set [7] (i.p. 600 mg/kg) it was 32 ± 5 mg/dL; in data set [10] (40 mg/kg) it was 25 ± 3 mg/dL; in [10] (80 mg/kg), 23 ± 4 mg/dL. The Urea nitrogen in data set [10] (160 mg/kg) came to 27 ± 6 mg/dL; in data set [10] (200 mg/kg), 28 ± 4 mg/dL. Further, the figures for the IC50 in data set [8] and in data set [9] were 198 µM and 1.22 µM, respectively. Also, the “Judgement 2 (Slight opaque ring was seen in crystal lens), eggs” value in data set [11] is reported as 1/5. Moreover, the “Judgement 3 (Clear ring of white haze was seen in crystal lens), eggs” value in data set [11] is 1/5. For the same compound, the “Judgement 4 ~ 5 (white haze of pinhole size in nucleus ~ whole nucleus hazed in white), eggs” value in data set [11] is reported as 3/5. Also, the LD50 entry in data set [12] (mouse, in vivo, ip, 336 h) was “about 1.0 g/kg-mouse”.

Source of the values: US5369112A, “Method of treating cataracts caused by active oxygen” (Mitsubishi Gas Chemical Company, Inc., priority 1991, dated 1994).
